Results on 32 compounds are retold here after patent US8846704B2, “Thiopyrimidine-based compounds and uses thereof” (YM Biosciences Austraila Pty Ltd, priority 2007, dated 2014).

The test has as its target T1, BaF3 TELJAK3 cells (Homo sapiens, UniProt P52333).
T1 construct: fused on or other part: TEL (ETV6) N-terminal part, coding nucleotides 1-487, serves as the oligomerising partner; It is fused through a Sal I site to the JAK3 kinase domain and expressed from pTRE2 in BaF3 cells bearing pTET-off; P41212 (Transcription factor ETV6)
T1 sequence (P52333 1-1124): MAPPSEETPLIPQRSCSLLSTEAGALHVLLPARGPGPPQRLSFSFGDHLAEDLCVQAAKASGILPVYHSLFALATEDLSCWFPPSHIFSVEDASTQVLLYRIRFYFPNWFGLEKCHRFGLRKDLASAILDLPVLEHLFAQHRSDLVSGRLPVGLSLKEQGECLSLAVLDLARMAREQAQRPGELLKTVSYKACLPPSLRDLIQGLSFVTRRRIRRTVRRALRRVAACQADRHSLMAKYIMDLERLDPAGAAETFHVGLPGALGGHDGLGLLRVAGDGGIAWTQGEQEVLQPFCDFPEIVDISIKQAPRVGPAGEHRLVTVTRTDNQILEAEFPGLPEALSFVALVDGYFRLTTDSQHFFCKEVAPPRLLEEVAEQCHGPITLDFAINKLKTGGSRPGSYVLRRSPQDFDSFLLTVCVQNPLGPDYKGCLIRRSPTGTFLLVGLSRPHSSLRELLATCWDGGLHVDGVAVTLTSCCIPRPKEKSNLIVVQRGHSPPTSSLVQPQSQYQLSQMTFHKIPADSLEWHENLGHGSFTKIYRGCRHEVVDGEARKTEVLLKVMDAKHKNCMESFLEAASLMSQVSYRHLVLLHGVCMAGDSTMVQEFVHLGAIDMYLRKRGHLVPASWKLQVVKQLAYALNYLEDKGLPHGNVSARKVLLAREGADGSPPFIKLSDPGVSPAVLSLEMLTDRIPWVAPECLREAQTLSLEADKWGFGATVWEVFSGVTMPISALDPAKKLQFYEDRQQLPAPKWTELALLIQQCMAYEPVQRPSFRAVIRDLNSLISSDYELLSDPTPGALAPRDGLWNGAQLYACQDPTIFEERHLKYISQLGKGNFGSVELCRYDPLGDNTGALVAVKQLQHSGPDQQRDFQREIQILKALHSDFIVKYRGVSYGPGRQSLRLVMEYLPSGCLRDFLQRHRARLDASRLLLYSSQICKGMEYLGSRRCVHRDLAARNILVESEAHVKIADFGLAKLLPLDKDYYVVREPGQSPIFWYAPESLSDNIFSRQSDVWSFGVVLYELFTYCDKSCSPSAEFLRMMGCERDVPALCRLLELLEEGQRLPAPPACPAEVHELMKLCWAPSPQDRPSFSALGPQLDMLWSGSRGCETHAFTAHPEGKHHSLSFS
Kind of test: Cellular screening, BaF3 TEL:JAK3 cells, Alamar Blue. It counts as cell-based. To be noted: 40 hr, read-out: BafT_J3 IC50_nM. Put shortly:
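BaF3 cells carrying pTET-off and a TEL–JAK3 kinase-domain fusion, selected for growth-factor independence, were grown in DMEM with 10% Tet-approved FBS without WEHI 3B medium. Cells were exposed to compounds for 40 h at 37 °C, 5% CO2. Viability was read with Alamar Blue (4–6 h) at 544 nm.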
For orientation: Alamar Blue is a resazurin reagent that responds to reducing activity.
In the case of `C=CC(=O)Nc1cccc(Nc2nccc(Sc3cccc(OC)c3)n2)c1` [Compound 31, N-(3-(4-(3-methoxyphenylthio)pyrimidin-2-ylao)phenyl)acrylamide], the GI50 is less than 1 µM.

As to `COc1cc(Nc2nccc(Sc3ccc(NCC#N)cc3)n2)cc(OC)c1OC` [Compound 52, 2-(4-(2-(3,4,5-trimethoxyphenylao)pyrimidin-4-ylthio)phenylao)acetonitrile], the GI50 is less than 5 µM. In the case of `C=CC(=O)Nc1ccc(Sc2ccnc(Nc3ccc(OC)cc3)n2)cc1` [Compound 74, N-(4-(2-(4-methoxyphenylao)pyrimidin-4-ylthio)phenyl)acrylamide], the GI50 is less than 1 µM.

In the case of `CC(=O)Nc1ccc(Sc2ccnc(Nc3ccc(N4CCC(N5CCCC5)CC4)cc3)n2)cc1` [Compound 86, N-(4-(2-(4-(4-(pyrrolidin-1-yl)piperidin-1-yl)phenylao)pyrimidin-4-ylthio)phenyl)acetamide], the GI50 is less than 5 µM.

As for `C=CC(=O)Nc1ccc(Sc2ccnc(Nc3ccc(N4CCC(N5CCCC5)CC4)cc3)n2)cc1` [Compound 87, N-(4-(2-(4-(4-(pyrrolidin-1-yl)piperidin-1-yl)phenylao)pyrimidin-4-ylthio)phenyl)acrylamide], the GI50 was less than 1 µM. As for `N#CCC(=O)Nc1ccc(Sc2ccnc(Nc3ccc(N4CCC(N5CCCC5)CC4)cc3)n2)cc1` [Compound 88, 2-cyano-N-(4-(2-(4-(4-(pyrrolidin-1-yl)piperidin-1-yl)phenylao)pyrimidin-4-ylthio)phenyl)acetamide], the GI50 is less than 5 µM.

For the compound `C=CC(=O)N(C)c1ccc(Sc2ccnc(Nc3ccc(N4CCOCC4)cc3)n2)cc1` [Compound 91, N-methyl-N-(4-(2-(4-morpholinophenylao)pyrimidin-4-ylthio)phenyl)acrylamide], the GI50 is less than 1 µM.

As for `C=CC(=O)Nc1ccc(Sc2ccnc(Nc3ccc(OC)c(O)c3)n2)cc1` [Compound 97], the GI50 is less than 1 µM. The value for `C=CC(=O)Nc1ccc(Sc2ccnc(Nc3ccc(N4CCS(=O)(=O)CC4)cc3)n2)cc1` [Compound 99, N-{4-[(2-{[4-(1,1-dioxo-1λ^6,4-thiomorpholin-4-yl)phenyl]ao}pyrimidin-4-yl)sulfanyl]phenyl}prop-2-enamide] was less than 1 µM; that for `COc1ccc(Nc2nccc(Sc3ccc(NC(=O)CC#N)cc3)n2)cc1OC` [Compound 101, 2-cyano-N-(4-(2-(3,4-dimethoxyphenylao)pyrimidin-4-ylthio)phenyl)acetamide] was less than 1 µM; that for `CC#CC(=O)Nc1ccc(Sc2ccnc(Nc3ccc(N4CCOCC4)cc3)n2)cc1` [Compound 104, N-(4-(2-(4-morpholinophenylao)pyrimidin-4-ylthio)phenyl)but-2-ynamide] was less than 5 µM.

With `C=CC(=O)Nc1ccc(Sc2ccnc(Nc3cccc(OC)c3)n2)cc1` [Compound 105, N-(4-(2-(3-methoxyphenylao)pyrimidin-4-ylthio)phenyl)acrylamide], the GI50 was less than 1 µM. As to `COc1cc(Sc2ccnc(Nc3ccc(N4CCOCC4)cc3)n2)ccc1N` [Compound 117, 4-(4-ao-3-methoxyphenylthio)-N-(4-morpholinophenyl)pyrimidin-2-ae], the GI50 was greater than 20 µM. On to `C=CC(=O)Nc1ccc(Sc2ccnc(Nc3cccc(C#N)c3)n2)cc1` [Compound 118, N-(4-(2-(3-cyanophenylao)pyrimidin-4-ylthio)phenyl)acrylamide], for which the GI50 was less than 5 µM. `C=CC(=O)Nc1cccc(Sc2ccnc(Nc3ccc(OC)cc3)n2)c1` [Compound 120, N-(3-(2-(4-methoxyphenylao)pyrimidin-4-ylthio)phenyl)acrylamide]: the GI50 was less than 1 µM. In the case of `C=CC(=O)Nc1ccc(Sc2nc(Nc3ccc(N4CCOCC4)cc3)ncc2C)cc1` [Compound 124, N-(4-(5-methyl-2-(4-morpholinophenylao)pyrimidin-4-ylthio)phenyl)acrylamide], the GI50 was less than 1 µM. Turning to `CC#CC(=O)Nc1ccc(Sc2nc(Nc3ccc(N4CCOCC4)cc3)ncc2C)cc1` [Compound 125, N-(4-(5-methyl-2-(4-morpholinophenylao)pyrimidin-4-ylthio)phenyl)but-2-ynamide], the GI50 was less than 5 µM. As to `Cc1cnc(Nc2ccc(N3CCOCC3)cc2)nc1Sc1ccc(N)cc1` [Compound 126, 4-(4-aophenylthio)-5-methyl-N-(4-morpholinophenyl)pyrimidin-2-ae], the GI50 was less than 5 µM. Consider `c1cn(Cc2ccc(Sc3ccnc(Nc4ccc(N5CCOCC5)cc4)n3)cc2)cn1` [Compound 127, 4-(4-((1H-imidazol-1-yl)methyl)phenylthio)-N-(4-morpholinophenyl)pyrimidin-2-ae], for which the GI50 is less than 20 µM. Turning to `C=CC(=O)Nc1ccc(Sc2ccnc(Nc3ccc(C#N)cc3)n2)cc1` [Compound 131, N-(4-(2-(4-cyanophenylao)pyrimidin-4-ylthio)phenyl)acrylamide], the GI50 is less than 5 µM. On to `CC(=O)Nc1ccc(Sc2nc(Nc3ccc(N4CCOCC4)cc3)ncc2C)cc1` [Compound 135, N-(4-(5-methyl-2-(4-morpholinophenylao)pyrimidin-4-ylthio)phenyl)acetamide], for which the GI50 is greater than 20 µM. For `Cc1cnc(Nc2ccc(N3CCOCC3)cc2)nc1Sc1ccc(C#N)cc1` [Compound 136, 4-(5-methyl-2-(4-morpholinophenylao)pyrimidin-4-ylthio)benzonitrile], the GI50 was greater than 20 µM. The value for `CCOC(=O)c1nccn1Cc1ccc(Sc2ccnc(Nc3ccc(N4CCOCC4)cc3)n2)cc1` [Compound 148, ethyl 1-(4-(2-(4-morpholinophenylao)pyrimidin-4-ylthio)benzyl)-1H-imidazole-2-carboxylate] was less than 20 µM; that for `NC(=O)c1nccn1Cc1ccc(Sc2ccnc(Nc3ccc(N4CCOCC4)cc3)n2)cc1` [Compound 149, 1-(4-(2-(4-morpholinophenylao)pyrimidin-4-ylthio)benzyl)-1H-imidazole-2-carboxamide] was less than 5 µM. For the compound `N#Cc1nccc(Sc2ccc(Sc3ccnc(Nc4ccc(N5CCOCC5)cc4)n3)cc2)n1` [Compound 154, 4-(4-(2-(4-morpholinophenylao)pyrimidin-4-ylthio)phenylthio)pyrimidine-2-carbonitrile], the GI50 was less than 5 µM. Take `C=CC(=O)Nc1ccc(Sc2ccnc(Nc3ccc(N4CCOCC4)cc3)n2)c(Cl)c1C` [Compound 161, N-(3-chloro-2-methyl-4-(2-(4-morpholinophenylao)pyrimidin-4-ylthio)phenyl)acrylamide]: the GI50 is less than 1 µM. Turning to `C=CC(=O)Nc1cc(C)c(Sc2nc(Nc3ccc(N4CCOCC4)cc3)ncc2C)c(C)c1` [Compound 164, N-(3,5-dimethyl-4-(5-methyl-2-(4-morpholinophenylao)pyrimidin-4-ylthio)phenyl)acrylamide], the GI50 is less than 1 µM. Turning to `Cc1cnc(Nc2ccc(N3CCOCC3)cc2)nc1Sc1ccc2c(c1)CCCN2` [Compound 166, 5-methyl-N-(4-morpholinophenyl)-4-(1,2,3,4-tetrahydroquinolin-6-ylthio)pyrimidin-2-ae], the GI50 is less than 20 µM. On to `C=CC(=O)Nc1ccc(Sc2nc(Nc3ccc(N4CCOCC4)cc3)ncc2C)c(Cl)c1C` [Compound 171, N-(3-chloro-2-methyl-4-(5-methyl-2-(4-morpholinophenylao)pyrimidin-4-ylthio)phenyl)acrylamide], for which the GI50 was less than 5 µM. `CSc1nc(Nc2ccc(N3CCOCC3)cc2)ncc1C` [Compound 176, 5-methyl-4-(methylthio)-N-(4-morpholinophenyl)pyrimidin-2-ae]: the GI50 is less than 5 µM. With `Cc1cnc(Nc2ccc(N3CCOCC3)cc2)nc1Sc1ccc(NC(=O)COCC(=O)O)cc1` [Compound 188, 2-(2-(4-(5-methyl-2-(4-morpholinophenylao)pyrimidin-4-ylthio)phenylao)-2-oxoethoxy)acetic acid], the GI50 was greater than 20 µM. The value for `COC(=O)COCC(=O)Nc1ccc(Sc2nc(Nc3ccc(N4CCOCC4)cc3)ncc2C)cc1` [Compound 189, methyl 2-(2-(4-(5-methyl-2-(4-morpholinophenylao)pyrimidin-4-ylthio)phenylao)-2-oxoethoxy)acetate] was less than 20 µM.
